Entries after “also recorded” stand apart in the source; their conditions may differ. Read-outs that look alike come from different tables or passages of the source. Starred links: 1 amine or outer side, 2 acyl side, 3 side chain; linkers in the order of their positions; H or OH if unused. Non-standard residues stand in square brackets, D forms with d. Residues, ends and D or L forms follow the SMILES beside them. *: point of attachment. RhodamineB = CCN(CC)c1ccc2c(-c3ccccc3C(=O)*)c3ccc(=[N+](CC)CC)cc-3oc2c1; X1 = COC(=O)/C=C/CC[C@H](N[*:1])C(=O)[*:2]; X2 = COC(=O)C=CCCC[C@H](N[*:1])C(=O)[*:2]; X3 = COC(=O)C=CC[C@H](N[*:1])C(=O)[*:2]; Nle = CCCC[C@H](N)C(=O)O; Orn = NCCC[C@H](N)C(=O)O; Dab = NCC[C@H](N)C(=O)O; Acryloyl = C=CC(=O)*; Ahx = NCCCCCC(=O)O

The target of the assay is T1, Thrombin-activated human FXIIIa (Homo sapiens, UniProt P00488).
T1 construct: purchased Zedira GmbH T070
T1 sequence (P00488 39-732 limits assumed): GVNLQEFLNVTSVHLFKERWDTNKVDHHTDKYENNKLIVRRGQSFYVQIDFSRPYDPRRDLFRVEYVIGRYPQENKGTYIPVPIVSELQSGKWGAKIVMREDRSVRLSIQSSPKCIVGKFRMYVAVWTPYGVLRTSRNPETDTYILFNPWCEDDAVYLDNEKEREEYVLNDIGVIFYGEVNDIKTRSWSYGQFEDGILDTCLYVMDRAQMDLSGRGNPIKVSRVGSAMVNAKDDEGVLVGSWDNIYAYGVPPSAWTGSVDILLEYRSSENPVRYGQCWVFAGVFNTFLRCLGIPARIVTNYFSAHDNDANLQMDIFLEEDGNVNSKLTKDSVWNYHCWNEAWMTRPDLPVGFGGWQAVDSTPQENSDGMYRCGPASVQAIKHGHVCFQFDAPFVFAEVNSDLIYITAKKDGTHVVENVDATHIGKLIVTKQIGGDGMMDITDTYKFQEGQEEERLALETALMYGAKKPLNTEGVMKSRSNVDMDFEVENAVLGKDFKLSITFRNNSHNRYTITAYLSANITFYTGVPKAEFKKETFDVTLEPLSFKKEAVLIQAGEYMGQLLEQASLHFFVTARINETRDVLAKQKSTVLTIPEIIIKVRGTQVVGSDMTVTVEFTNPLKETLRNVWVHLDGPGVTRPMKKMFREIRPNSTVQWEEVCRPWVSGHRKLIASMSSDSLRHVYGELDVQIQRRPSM
In words: Fluorescence-quenched A101 isopeptidase assay of FXIIIa inhibition kinetics. It counts as biochemical. The settings on record: for FXIIIa Inh. Mode: Rev = reversible, Irrev = irreversible, None = no inhibition detected up to 200 μM; for Selectivity: isozyme favoured, FXIIIa vs TG2, FXIIIa as the favoured isozyme; for selectivity for FXIIIa over TG2: from kinact/KI against FXIIIa and TG2. The protocol:
All inhibitors synthesised herein were evaluated for inhibition against FXIIIa, using the fluorescence-quenched A101 isopeptidase assay, and against TG2, using the colorimetric AL5 transamidase assay. The assay substrates A101 and AL5 both present labile bonds that are cleaved by the activities of their corresponding transglutaminases, resulting in the release of a fluorophore or chromophore moiety, respectively. The rate of consumption of these assay substrates, indicated by increases in fluorescence or absorbance over time, can be detected for measuring enzyme activity. Assays were run in duplicate at constant reporter substrate concentration with varying concentrations of inhibitor. The type of inhibition was determined through visual inspection of the fluorescence-time curvature; termination of the enzymatic reaction with the substrate at a plateau lower than the no-inhibitor positive control is indicative of irreversible inhibition. On the other hand, convergence to a common plateau indicates reversible inhibition.
Irreversibility was tested further through substrate spike experiments. As shown in Supplementary Materials Figures S1–S3, an additional substrate was added to inhibited and uninhibited enzyme reactions after the completion of the positive control reaction. […] Analysis was carried out through corrected Dixon modelling in the case of reversible kinetics, to obtain Ki values (Figure 5B), and hyperbolic saturation modelling was used to obtain kinact and KI for inhibitors showing irreversibility (Figure 5E). For cases in which the tested inhibitor concentrations were not high enough to reach saturation, a linear regression provided an estimate of the inhibitor’s kinact/KI ratio (Figure 5D). Further details concerning data collection and analysis are provided in the Materials and Methods section.
A previously reported fluorescence-quenched isopeptidase assay using the commercially available substrate A101 (Zedira GmbH, Darmstadt, Germany) was employed for the determination of FXIIIa inhibition kinetics. All assays were performed at 37 °C on 96-well plates, with fluorescence (excitation at 313 nm, emission at 418 nm) measured continuously using a BioTek Synergy 4 plate reader. For each inhibitor, duplicate trials were run in parallel at 4 inhibitor concentrations, along with duplicate positive controls (no inhibitor) and negative controls (no enzyme and no inhibitor). First, 125 μL of aqueous buffer 1 (111 mM Tris, 16.7 mM CaCl2, 333 mM NaCl, pH 7.5) and 18 μL of aqueous buffer 2 (55.6 mM TCEP, 149 mM H-Gly-OMe, pH 7.5) were added to each well, along with 5 μL of A101 stock solution (4000 μM in DMSO). Next, the appropriate amount of the desired inhibitor, dissolved in DMSO, was added, in addition to the amount of distilled water necessary to reach a total volume of 180 μL in each well. Negative controls were diluted to a final volume of 200 μL. Thrombin-activated human FXIIIa (T070, Zedira GmbH, Darmstadt, Germany), stored at −80 °C in 20-μL aliquots (1 mg/mL enzyme) of storage buffer (50.0 mM Tris, 1.00 mM TCEP, 150 mM NaCl, pH 7.5) was warmed to room temperature and diluted to 0.0741 mg/mL through the addition of 250 μL of storage buffer. The diluted enzyme solution was then aliquoted into 10 separate PCR tubes. The assay plate and enzyme tubes were subsequently incubated at 37 °C for 10 min. After the completion of the incubation period, 20 μL of diluted FXIIIa solution was added from each PCR tube to all wells in the plate excluding the negative controls using a multi-channel pipette. This produced a final volume of 200 μL per well, with final reaction conditions of pH 7.5, 74.4 mM Tris, 10.4 mM CaCl2, 223 mM NaCl, 5.10 mM TCEP, 13.4 mM H-Gly-OMe, 100 μM A101, and 7.41 μg/mL (94 nM) FXIIIa. The range of inhibitor concentrations tested spanned from 1 to 200 μM, and the final DMSO concentration in the reaction mixture was kept below 10% v/v. […]

Where [1] appears, read: peptidic series, corrected Dixon plot, α = 13.5, read-out: FXIIIa Ki or KI: Ki of reversible inhibitors.
[2] abbreviates: small molecule series, reversible, Dixon plot, Interference = data afflicted by fluorescence interference.
Setting [3] is: small molecule series, reversible, Dixon plot, Interference = data afflicted by fluorescence interference, read-out: FXIIIa Ki.
The mark [4] stands for this setting: dansyl and sulfonyl-naphthalene compounds, data afflicted by fluorescence interference and set aside, read-out: FXIIIa apparent Ki (interference).

Consider `C=CC(=O)NCC[C@H](NC(=O)[C@@H](CC(=O)O)NC(C)=O)C(=O)N[C@@H](CCCC)C(=O)N[C@@H](CCCC)C(=O)N[C@@H](CC(C)C)C(=O)N1CCC[C@H]1C(=O)N[C@@H](Cc1c[nH]c2ccccc12)C(=O)N1CCC[C@H]1C(=O)O` [Compound 12, Ac-D-Asp-Dab(Acrylamide)-Nle-Nle-Leu-Pro-Trp-Pro-OH] (Ac-[dD][Dab](Acryloyl)[Nle][Nle]LPWP-OH), for which the “FXIIIa Inh. Mode” value is “Rev” and the Selectivity entry is given as “FXIIIa”. In addition, the Ki under setting [1] is 193 ± 20 µM.

With `C=CC(=O)NCCC[C@H](NC(=O)[C@@H](CC(=O)O)NC(C)=O)C(=O)N[C@@H](CCCC)C(=O)N[C@@H](CCCC)C(=O)N[C@@H](CC(C)C)C(=O)N1CCC[C@H]1C(=O)N[C@@H](Cc1c[nH]c2ccccc12)C(=O)N1CCC[C@H]1C(=O)O` [Compound 13] (Ac-[dD][Orn](Acryloyl)[Nle][Nle]LPWP-OH), the “FXIIIa Inh. Mode” value was “Rev” and the Selectivity result was “FXIIIa”. Moreover, the Ki under setting [1] worked out at 135 ± 16 µM.

For `C=CC(=O)NCCCC[C@H](NC(=O)[C@@H](CC(=O)O)NC(C)=O)C(=O)N[C@@H](CCCC)C(=O)N[C@@H](CCCC)C(=O)N[C@@H](CC(C)C)C(=O)N1CCC[C@H]1C(=O)N[C@@H](Cc1c[nH]c2ccccc12)C(=O)N1CCC[C@H]1C(=O)O` [Compound 14] (Ac-[dD]K(Acryloyl)[Nle][Nle]LPWP-OH), the “FXIIIa Inh. Mode” value is recorded as “Rev” and the Selectivity entry was “FXIIIa”. Also, the Ki under setting [1] was determined as 125 ± 20 µM.

As to `CCCC[C@H](NC(=O)[C@H](CC=CC(=O)OC)NC(=O)[C@@H](CC(=O)O)NC(C)=O)C(=O)N[C@@H](CCCC)C(=O)N[C@@H](CC(C)C)C(=O)N1CCC[C@H]1C(=O)N[C@@H](Cc1c[nH]c2ccccc12)C(=O)N1CCC[C@H]1C(=O)O` [Compound 45] (Ac-[dD][X3][Nle][Nle]LPWP-OH), the “FXIIIa Inh. Mode” value was “weak reversible inhibition and Rev”; the Selectivity result is “FXIIIa”. Moreover, the Ki under setting [1] is 53 ± 12 µM.

With `CCCC[C@H](NC(=O)[C@H](CCCC=CC(=O)OC)NC(=O)[C@@H](CC(=O)O)NC(C)=O)C(=O)N[C@@H](CCCC)C(=O)N[C@@H](CC(C)C)C(=O)N1CCC[C@H]1C(=O)N[C@@H](Cc1c[nH]c2ccccc12)C(=O)N1CCC[C@H]1C(=O)O` [Compound 47] (Ac-[dD][X2][Nle][Nle]LPWP-OH), the “FXIIIa Inh. Mode” value was “reversible and highly potent reversible FXIIIa inhibition and Rev”; the Selectivity entry is on record as “Irrev TG2”. The Ki under setting [1] was 0.0941 ± 0.0105 µM.

With `C=CC(=O)NCC(NC(=O)CC(=O)O)C(=O)N1CCN(S(=O)(=O)c2cccc3c(N(C)C)cccc23)CC1` (centres unmarked) [Compound 71], the “FXIIIa Ki” value under setting [2] is listed as “Interference *”.

As for `C=CC(=O)NCC(NC(=O)CC(=O)O)C(=O)N1CCN(C(=O)c2cccc3ccccc23)CC1` (centres unmarked) [Compound 72], the Ki under setting [3] is 249 ± 69.3 µM.

In the case of `C=CC(=O)NCC(NC(=O)C1(C(=O)OC)CC1)C(=O)N1CCN(S(=O)(=O)c2cccc3c(N(C)C)cccc23)CC1` (centres unmarked) [Compound 73], under setting [2], the “FXIIIa Ki” value is “Interference *”.

As for `C=CC(=O)NCC(NC(=O)C1(C(=O)O)CC1)C(=O)N1CCN(S(=O)(=O)c2cccc3c(N(C)C)cccc23)CC1` [Compound 74, Acid-Cyclopropyl-L-Dap(Acryl)-Piperazine-Dansyl], the “FXIIIa Ki” value under setting [2] is listed as “Interference *”.

Turning to `C=CC(=O)NCC(NC(=O)CCC(=O)O)C(=O)N1CCN(S(=O)(=O)c2cccc3c(N(C)C)cccc23)CC1` [Compound 75, Succinyl-L-Dap(Acryl)-Piperazine-Dansyl], under setting [2], the “FXIIIa Ki” value was “Interference *”.

On to `C=CC(=O)NCC(NC(=O)CCC(=O)O)C(=O)N1CCN(S(=O)(=O)c2cccc3ccccc23)CC1` [Compound 76, Succinyl-L-Dap(Acryl)-Piperazine-Sulfonyl-Naphthalene], for which the Ki under setting [4] was found to be 64.3 ± 5.1 µM. Besides, under setting [2], the “FXIIIa Ki” value is on record as “Interference *”.

`C=CC(=O)NCC(NC(=O)CCC(=O)O)C(=O)N1CCN(C(=O)c2cccc3ccccc23)CC1` [Compound 77, Succinyl-L-Dap(Acryl)-Piperazine-Naphthoyl]: under setting [3], the Ki amounted to 69 ± 4.1 µM.

As to `C=CC(=O)NCC(NS(=O)(=O)CC(=O)O)C(=O)N1CCN(S(=O)(=O)c2cccc3c(N(C)C)cccc23)CC1` (centres unmarked) [Compound 79], the Ki under setting [4] was determined as 26.7 ± 1.3 µM. For the same compound, the “FXIIIa Ki” value under setting [2] is “Interference *”.

As for `C=CC(=O)NC(CNC(=O)CCC(=O)O)C(=O)N1CCN(C(=O)c2cccc3ccccc23)CC1` (centres unmarked) [Compound 84], the Ki under setting [3] is 108 ± 19.1 µM.

With `COC(=O)C=CCCC(NC(=O)CCC(=O)O)C(=O)N1CCN(C(=O)c2cccc3ccccc23)CC1` (centres unmarked) [Compound 87], under setting [3], the Ki was found to be 131 µM.

Turning to `COC(=O)C=CCCC(NC(=O)c1ccccc1C(=O)O)C(=O)N1CCN(C(=O)c2cccc3ccccc23)CC1` (centres unmarked) [Compound 88], the Ki under setting [3] worked out at 265 ± 46.8 µM.

Consider `CCCC[C@H](NC(=O)[C@H](CC/C=C/C(=O)OC)NC(=O)[C@@H](CC(=O)O)NC(=O)CCCCCNC(=O)[C@@H]1CCCN1C(=O)c1ccccc1-c1c2ccc(=[N+](CC)CC)cc-2oc2cc(N(CC)CC)ccc12)C(=O)N[C@@H](CCCC)C(=O)N[C@@H](CC(C)C)C(=O)N1CCC[C@H]1C(=O)N[C@@H](Cc1c[nH]c2ccccc12)C(=O)N1CCC[C@H]1C(=O)O` [Compound 93] (RhodamineB-P[Ahx][dD][X1][Nle][Nle]LPWP-OH), for which the “selectivity for FXIIIa over TG2” value is listed as “around 6.5 fold”. Moreover, the “selectivity for FXIIIa over TG2” value (listed as KM93) amounted to 6.5 fold. For the setting “irreversible inhibitors, saturation fit or linear regression”, the inactivation efficiency (kinact/KI) (usually the second-order rate constant of inactivation) is 2120 M⁻¹ s⁻¹.

With “Ac-D-Asp-Dap(Acrylamide)-Nle-Nle-Leu-Pro-Trp-Pro-OH [Compound 11]”, the “FXIIIa Inh. Mode” value was “complete loss of inhibition; also recorded: no inhibition; also recorded: None *”.

The values are drawn from PMC9960274, “Peptidic Inhibitors and a Fluorescent Probe for the Selective Inhibition and Labelling of Factor XIIIa Transglutaminase” (Molecules, 2023).
